Test results published in US20240270762A1, “PENICILLIN-BINDING PROTEIN INHIBITORS” (priority 2021, published 2024).
In brackets after ≈: the same amount, converted by molar mass.

Legend:
A. baumannii 1258916 = assay: microbe, parasite or virus in culture; type: cell-based, Acinetobacter baumannii; details: Acinetobacter baumannii, 1258916, read-out: MIC, A. baumannii 1258916
N. gonorrhoeae WHO M = assay: Liquid broth MIC in Fastidious broth; details: Neisseria gonorrhoeae, read-out: Minimum Inhibitory Concentration, WHO M
N. gonorrhoeae WHO G = assay: Liquid broth MIC in Fastidious broth; details: Neisseria gonorrhoeae, read-out: Minimum Inhibitory Concentration, WHO G
A. baumannii CDC-0045 = assay: microbe, parasite or virus in culture; type: cell-based; details: Acinetobacter baumannii, CDC0045, read-out: MIC, A. baumannii CDC-0045
N. gonorrhoeae CDC-0197 = assay: Liquid broth MIC in Fastidious broth; details: Neisseria gonorrhoeae, CDC0197, read-out: Minimum Inhibitory Concentration, CDC-0197
[1] = target: T1, PBP3 from Acinetobacter baumannii (ATCC 19606) (Acinetobacter baumannii, UniProt A0ABX6CK25); assay: Bocillin-FL fluorescence polarization competition binding, A. baumannii PBP3; details: fluorescence polarization competition binding assay using Bocillin-FL; read-out: A. baumannii PBP3 Potency
T1 sequence (A0ABX6CK25 64-610): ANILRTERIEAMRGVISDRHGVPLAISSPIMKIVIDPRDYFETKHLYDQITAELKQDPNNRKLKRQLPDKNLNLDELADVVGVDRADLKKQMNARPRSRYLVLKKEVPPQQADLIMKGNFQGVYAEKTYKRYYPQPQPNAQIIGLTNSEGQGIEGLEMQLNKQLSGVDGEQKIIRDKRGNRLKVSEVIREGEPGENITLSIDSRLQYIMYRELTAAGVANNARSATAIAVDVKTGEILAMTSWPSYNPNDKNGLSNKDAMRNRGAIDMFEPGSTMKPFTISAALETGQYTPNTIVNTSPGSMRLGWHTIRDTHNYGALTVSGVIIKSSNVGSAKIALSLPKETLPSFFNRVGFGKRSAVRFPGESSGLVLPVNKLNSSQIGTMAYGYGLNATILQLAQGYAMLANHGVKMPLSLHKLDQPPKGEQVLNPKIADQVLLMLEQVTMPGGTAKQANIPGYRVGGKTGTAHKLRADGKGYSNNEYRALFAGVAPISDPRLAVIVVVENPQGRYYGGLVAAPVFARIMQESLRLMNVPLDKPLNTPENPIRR
How it was run: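 Purified PBPs pre-incubated with inhibitor (E. coli PBP3 1.5 μM, 30 min; P. aeruginosa PBP3 0.75 μM, A. baumannii PBP1a 1 μM and PBP3 0.2 μM, 15 min), then Bocillin-FL 0.1 μM (0.05 μM for PBP1a) added; FP read up to 60 min. EC50 = concentration halving bound Bocillin-FL.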

A. baumannii ATCC 19606 = assay: microbe, parasite or virus in culture; type: cell-based; details: Acinetobacter baumannii, ATCC19606, read-out: MIC, A. baumannii ATCC 19606
P. aeruginosa CDC-0090 = assay: microbe, parasite or virus in culture; type: cell-based; details: Pseudomonas aeruginosa, CDC0090, read-out: Minimum inhibitory concentration, P. aeruginosa CDC-0090

O=C(O)c1c(F)ccc2c1OB(O)[C@@H](NC(=O)C(NC(=O)N1CCN(S(=O)(=O)CCCNC(=O)[C@@H]3CCCN3)C1=O)c1cc(F)c(O)c(O)c1Cl)C2 (stereo partly drawn) [Example 275, (3R)-3-(2-(2-chloro-5-fluoro-3,4-dihydroxyphenyl)-2-(2-oxo-3-((3-((S)-pyrrolidine-2-carboxamido)propyl)sulfonyl)imidazolidine-1-carboxamido)acetamido)-7-fluoro-2-hydroxy-3,4-dihydro-2H-benzo[e][1,2]oxaborinine-8-carboxylic acid]
MIC (A. baumannii 1258916): < 1 µg/mL | MIC (N. gonorrhoeae WHO M): 16 to 32 µg/mL (≈ 20.7 to 41.4 µM) | MIC (N. gonorrhoeae WHO G): 16 to 32 µg/mL (≈ 20.7 to 41.4 µM) | MIC (A. baumannii CDC-0045): < 1 µg/mL | MIC (N. gonorrhoeae CDC-0197): 16 to 32 µg/mL (≈ 20.7 to 41.4 µM) | IC50 [1]: < 10 µM | MIC (A. baumannii ATCC 19606): < 1 µg/mL | MIC (P. aeruginosa CDC-0090): 8 to 16 µg/mL (≈ 10.4 to 20.7 µM)

O=C(NCCCN1CCN(C(=O)N[C@@H](C(=O)N[C@H]2Cc3ccc(F)c(C(=O)O)c3OB2O)c2cc(F)c(O)c(O)c2Cl)C1=O)Nc1cccc(O)c1 [Example 258, (R)-3-((R)-2-(2-chloro-5-fluoro-3,4-dihydroxyphenyl)-2-(3-(3-(3-(3-hydroxyphenyl)ureido)propyl)-2-oxoimidazolidine-1-carboxamido)acetamido)-7-fluoro-2-hydroxy-3,4-dihydro-2H-benzo[e][1,2]oxaborinine-8-carboxylic acid]
MIC (A. baumannii 1258916): < 1 µg/mL | MIC (N. gonorrhoeae WHO M): 4 to 8 µg/mL (≈ 5.36 to 10.7 µM) | MIC (N. gonorrhoeae WHO G): 4 to 8 µg/mL (≈ 5.36 to 10.7 µM) | MIC (A. baumannii CDC-0045): < 1 µg/mL | MIC (N. gonorrhoeae CDC-0197): 16 to 32 µg/mL (≈ 21.4 to 42.8 µM) | IC50 [1]: < 10 µM | MIC (A. baumannii ATCC 19606): < 1 µg/mL | MIC (P. aeruginosa CDC-0090): < 1 µg/mL
